In patent US8313744B2, “Composition for the prevention and treatment of absence seizures comprising PKC agonist as an effective ingredient” (Korea Institute of Science and Technology, priority 2010, dated 2012):

How the values were obtained:
Type in all cases: in vivo
PLCβ4 knock-out mouse [1] = experiment: Change of SWD after injection of PKC agonist or calcium channel blocker into the thalamus relay nuclei, EEG measurement
PLCβ4 knock-out mouse [2] = experiment: SWD reduction by ethosuximide, EEG measurement; conditions: 200 mg/kg intraperitoneal, EEG recorded 1 hour, starting 30 minutes after injection, compared with NaCl control
PLCβ4 knock-out mouse [3] = experiment: Sensitivity to absence seizure inducing agents (GABAB receptor agonists), EEG measurement; conditions: PLCβ4 knock-out mouse compared with normal mouse
[4] = 10 pmol injected into thalamus relay nuclei, compared with before / 0.9% NaCl

SMILES: CCCCCCCCCC(=O)O[C@@H]1[C@@H](C)[C@@]2(O)[C@@H](C=C(CO)C[C@]3(O)C(=O)C(C)=C[C@@H]23)[C@@H]2C(C)(C)[C@]12OC(=O)CCCCCCCCC [PDD, phorbol 12,13-didecanoate]
- SWD (hourly number) in EEG (PLCβ4 knock-out mouse [1]; [4]): significantly reduced
- SWD (hourly number) in EEG (PLCβ4 knock-out mouse [1]; 10 pmol injected into thalamus relay nuclei, compared with before / 0.9% NaCl, listed as phorbol 12,13-didecanoate): reduced

SMILES: CCCCCCCCCCCCCC(=O)O[C@@H]1[C@@H](C)[C@@]2(O)[C@@H](C=C(CO)C[C@]3(O)C(=O)C(C)=C[C@@H]23)[C@@H]2C(C)(C)[C@]12OC(C)=O [PMA, phorbol 12-myristate 13-acetate]
- SWD (hourly number) in EEG (PLCβ4 knock-out mouse [1]; [4]): significantly reduced
- SWD (hourly number) in EEG (PLCβ4 knock-out mouse [1]; 10 pmol injected into thalamus relay nuclei, compared with before / 0.9% NaCl, listed as phorbol 12-myristate 13-acetate): reduced

SMILES: CCC1(C)CC(=O)NC1=O (centres unmarked) [ethosuximide]
- SWD (spike-and-wave discharge) in EEG (PLCβ4 knock-out mouse [2]): significantly reduced

SMILES: COCC(=O)O[C@]1(CCN(C)CCCc2nc3ccccc3[nH]2)CCc2cc(F)ccc2[C@@H]1C(C)C [mibefradil]
- SWD (hourly number) in EEG (PLCβ4 knock-out mouse [1]; 1 nmol injected into thalamus relay nuclei): significantly reduced

SMILES: O=C1CCCO1 [γ-butyrolactone]
- absence seizure specific SWD (PLCβ4 knock-out mouse [3]; after absence seizure inducing drug): increased
- duration of paroxysmal SWD after drug administration (PLCβ4 knock-out mouse [3]; intraperitoneal, γ-butyrolactone 40 or 70 mg/kg, RS(+/−)-baclofen 20 mg/kg): continued even longer
